# Test results taken from patent US20220177476A1, “Crystal Forms of (S)-4-(8-amino-3-(1-(but-2-ynoyl)-pyrrolidin-2-yl)imidazo[1,5-a]pyrazin-1-yl)-n-(pyridin-2-yl)benzamide” (Acerta Pharma B.V., priority 2015, published 2022).
# Assays:
# [1] = Dynamic vapor sorption (DVS); assay type: physicochemical; conditions: DVS
# Procedure: A gravimetric vapor sorption study was run using a standard procedure. Samples were run using a dynamic vapor sorption (DVS) analyzer. Sample sizes were approximately 10 mg. A moisture adsorption-desorption isotherm was performed as outlined below.
# [2] = Approximate solubility of Form I by stepwise dilution of a suspension; assay type: physicochemical; conditions: thermodynamic from solid, read-out: Solubility [S, mg/mL]
# Procedure: Form I was also tested with respect to solubilities in various water-solvent mixtures and non-aqueous solvents. Solubility studies were conducted by a stepwise dilution of a suspension of about 10 mg of Form I in 0.1 mL of analytical grade solvent. Solubility values are estimated approximations and are subject to variable experimental error.
# [3] = Intrinsic dissolution rate (paddle over stationary disc); assay type: physicochemical
# Procedure: The intrinsic dissolution rate (IDR) was measured for Forms I and II of the free base of Formula (1). IDR was measured using a paddle over stationary disc equipped dissolution apparatus with concentration determined using liquid chromatographic analysis against a standard. […] Form I has an IDR of 6.8 mg/cm^2/min in simulated gastric fluid (SGF) (pH 1.2) and an IDR of 0.44 mg/cm^2/min in pH 2.5 HCl/NaCl buffer. Form II has an IDR of 5.4 mg/cm^2/min in SGF and an IDR of 0.35 mg/cm^2/min in pH 2.5 HCl/NaCl buffer.
# [4] = Plasma exposure after single oral administration in fasted beagle dogs; assay type: in vivo; conditions: nine fasted beagle dogs, single oral administration of 6 mg/kg, oral capsule
# Procedure: The plasma exposure of Forms I and II of the free base of Formula (1) were compared in nine fasted beagle dogs after a single oral administration of 6 mg/kg of either form using batches with a similar particle size distribution. The experiment was performed in 5 weekly phases, with the Form II phase last. […] There was a good in vitro in vivo correlation for the dissolution rates of Form 1 and Form II, and the performance of each form of Formula (1) when delivered by oral capsule to dogs.
# [5] = Aqueous solubility after equilibrating at 25° C. for three days (HPLC); assay type: physicochemical; conditions: water, 25° C., three days
# Procedure: Finally, Form II was tested with respect to solubilities in various water-solvent mixtures and non-aqueous solvents. […] High-performance liquid chromatography (HPLC) was used to determine the concentration of Form II in the filtered solution at approximately 14 μg/mL, which translates into a critical water activity (aw) of about 0.59.
# [6] = Relative stability of solid forms (water activity, suspension equilibration, storage); assay type: physicochemical
# From the text: Critical water activity is a measure of the relative thermodynamic stability of Form I in comparison to the trihydrate Form II. […] Suspension equilibration experiments in ethanol-water mixtures, each having a different water activity, affirmed this conclusion. Water activities included in the experiments were maintained at: about 0.35 (ethanol-water ratio of 95:5, PP502-P32), about 0.53 (ethanol-water ratio of 9:1, PP502-P33) and about 0.77 (ethanol-water ratio of 7:3, PP502-P34).
# Because the DVS results of Form II indicate reversible moisture sorption-desorption behavior (see above), tests were performed to confirm that storage of the dehydrated Form II sample (i.e., Form IV) at about 60% RH would again lead to the trihydrate form (Form II). […]
# [7] = Solubility of Form I by HPLC in solvents and water-solvent mixtures; assay type: physicochemical; conditions: for solubility: organic solvent or mixture, thermodynamic from solid, read-out: Solubility (S, mg/mL)
# Procedure: The solubility of recrystallized Formula (1) Form I was tested in various water-solvent mixtures and non-aqueous solvents.
# [8] = Human Phase 1 interaction study of calcium carbonate, omeprazole, or rifampin on Formula (1); assay type: in vivo; conditions: healthy adult subjects, acid reducing agents prior to administration
structure (smiles),measurement,setting,value
"CC#CC(=O)N1CCC[C@H]1c1nc(-c2ccc(C(=O)Nc3ccccn3)cc2)c2c(N)nccn12 [Form I, (S)-4-(8-amino-3-(1-(but-2-ynoyl)pyrrolidin-2-yl)imidazo[1,5-α]pyrazin-1-yl)-N-(pyridin-2-yl)benzamide]","hygroscopicity (DVS), in words",[1],not hygroscopic
same,total weight gain observed between 0% RH and 80% RH,[1],about 0.17%
same,water content at 50% RH,[1],approximately 0.25%
same,water absorption within the timeframe of the test,[1]; at 95% RH,less than 0.3%
same,hygroscopicity according to the European Pharmacopoeia (EP) classification,[1]; weight increase at 80% RH,non-hygroscopic (non-hygroscopic: <0.2%)
same,maximum water content (saturation) at about 95% RH,[1]; listed as recrystallized Formula (1),approximately 0.5%
same,solubility,"[2]; 2-propanol, organic solvent or mixture",< 1 mg/mL
same,solubility,"[2]; MEK saturated with water, organic solvent or mixture",26 to 30 mg/mL
same,solubility,"[2]; THF:water 9:1, organic solvent or mixture",> 50 mg/mL
same,solubility,"[2]; acetic acid, organic solvent or mixture",102 to 204 mg/mL
same,solubility,"[2]; acetic acid:MEK 1:9, organic solvent or mixture",63 to 95 mg/mL
same,solubility,"[2]; acetic acid:ethyl acetate 1:1, organic solvent or mixture",92 to 184 mg/mL
same,solubility,"[2]; acetic acid:ethyl acetate 1:9, organic solvent or mixture",60 to 90 mg/mL
same,solubility,"[2]; acetic acid:isopropanol 1:9, organic solvent or mixture",~4 mg/mL
same,solubility,"[2]; acetic acid:water 1:1, aqueous with cosolvent or surfactant or cyclodextrin",104 to 208 mg/mL
same,solubility,"[2]; acetone, organic solvent or mixture",~2 mg/mL
same,solubility,"[2]; acetone:water 4:1, organic solvent or mixture",26 to 31 mg/mL
same,solubility,"[2]; acetonitrile, organic solvent or mixture",< 1 mg/mL
same,solubility,"[2]; ethanol, organic solvent or mixture",~3 mg/mL
same,solubility,"[2]; ethanol:water 1:1, aqueous with cosolvent or surfactant or cyclodextrin",~6 mg/mL
same,solubility,"[2]; ethanol:water 95:5, organic solvent or mixture",~8 mg/mL
same,solubility,"[2]; ethyl acetate, organic solvent or mixture",< 1 mg/mL
same,solubility,"[2]; formic acid, organic solvent or mixture",97 to 194 mg/mL
same,solubility,"[2]; methanol, organic solvent or mixture",~14 mg/mL
same,solubility,"[2]; methanol:water 9:1, organic solvent or mixture",~15 mg/mL
same,solubility,"[2]; organic solvent or mixture, 2-butanone, MEK",< 1 mg/mL
same,solubility,"[2]; organic solvent or mixture, N,N-dimethylformamide, DMF",49 to 65 mg/mL
same,solubility,"[2]; organic solvent or mixture, N-methyl-2-pyrrolidone, NMP",39 to 49 mg/mL
same,solubility,"[2]; organic solvent or mixture, dichloromethane, DCM",36 to 43 mg/mL
same,solubility,"[2]; organic solvent or mixture, dimethyl sulfoxide, DMSO",39 to 49 mg/mL
same,solubility,"[2]; organic solvent or mixture, ethanol:water 9:1 at 60° C.",> 60 mg/mL
same,solubility,"[2]; organic solvent or mixture, methanol:MEK 1:1 at reflux",> 90 mg/mL
same,solubility,"[2]; organic solvent or mixture, tetrahydrofuran, THF",~5 mg/mL
same,solubility,"[2]; trifluoroethane, organic solvent or mixture",97 to 194 mg/mL
same,increase in IDR relative to Form II,[3]; at both conditions (SGF and pH 2.5 buffer),~26%
same,intrinsic dissolution rate (IDR),[3]; pH 2.5 HCl/NaCl buffer,0.44 mg/cm^2/min
same,intrinsic dissolution rate (IDR),[3]; simulated gastric fluid (SGF) (pH 1.2),6.8 mg/cm^2/min
same,exposure,[4],higher exposure in the beagle than Form II
same,solid residue after aqueous solubility test (PXRD),[5],Form I was retained
same,form recovered after suspension equilibration in methanol,"[6]; 5° C., methanol, mixture of Forms (I), VI, and VII, five days",pure Form I was recovered
same,relative thermodynamic stability of Form I and Form II,"[6]; room temperature, depending on water activity","Below an aw of about 0.59, Form I is more stable"
same,"Solubility (S, mg/mL)","[7]; 1-propanol, 25° C.",4.0 mg/mL
same,"Solubility (S, mg/mL)","[7]; ethyl acetate, 25° C.",1.5 mg/mL
same,solubility,"[7]; 1-propanol, 5° C.",3.4 mg/mL
same,solubility,"[7]; 1-propanol, 60° C.",14.4 mg/mL
same,solubility,"[7]; 1-propanol, r.t.",4.7 mg/mL
same,solubility,"[7]; 2-propanol, 25° C.",1.3 mg/mL
same,solubility,"[7]; MEK, 25° C.",3.7 mg/mL
same,solubility,"[7]; THF, 25° C.",20.4 mg/mL
same,solubility,[7]; acetone at RFT,10 mg/mL
same,solubility,"[7]; acetone, 25° C.",4.1 mg/mL
same,solubility,"[7]; ethanol, 5° C.",3.6 mg/mL
same,solubility,"[7]; ethanol, 25° C.",4.4 mg/mL
same,solubility,"[7]; ethanol, 50° C.",10.2 mg/mL
same,solubility,"[7]; ethanol-water 9:1, 25° C.",23.7 mg/mL
same,solubility,"[7]; ethanol-water 96:4, 0° C.",6.7 mg/mL
same,solubility,"[7]; ethanol-water 96:4, 25° C.",10 mg/mL
same,solubility,"[7]; ethanol-water 96:4, 60° C.",24.7 mg/mL
same,solubility,"[7]; methanol, 25° C.",19.9 mg/mL
same,exposure after treatment with acid reducing agents,[8],significant decreases in exposure
